The target of one experiment is T1, ATX in human plasma (Homo sapiens, UniProt Q13822).
T1 construct: blank plasma was derived from at least 6 individual people; from tissue; host or cells: human plasma (pooled from at least 6 individuals)
Kind of experiment: Analysis in vitro: detection of LPA in human plasma for screening activity (LPA 18:2 by LC/MS/MS). As to conditions: incubated 2 hours at 37° C., LPA 18:2 detected by LC/MS/MS. The experiment is classed as biochemical. An excerpt:
Analysis In Vitro: Detection of LPA in Human Plasma for Screening Activity
Principle: LPC in plasma being used as a substrate, the produced LPA 18:2 (LPA 17:0 as an internal standard) is detected by LC/MS/MS quantitative analysis. At different concentrations of the compounds to be tested, the percentage of residual activity is obtained by the ratio of the production of LPA18:2 to that in the absence of the compounds to be tested, thereby calculating IC50 values.
Experiment procedures: blank plasma was derived from at least 6 individual people. The compounds to be tested were diluted from stock solution in 3-fold dilution gradient, to produce 8 concentrations of working solution (with zero) in series. 10 μL of the melting blank plasma samples were taken and iced methanol solution containing internal standard (LPA 17:0) was added to it, so that the mixture directedly performed protein precipitation, which served as a system control sample. 2 μL of the working solution in different concentration was taken and 198 μL of blank human plasma was added, which was incubated with a concentration of 0 to 10 μM. The samples were placed at an incubater containing 5% CO2 at 37° C., and incubated for 2 hours. When the incubation was completed, 10 μL of plasma sample was taken and appropriate volume of iced methanol solution containing internal standard (LPA 17:0) was added into it, so that the mixture directedly performed protein precipitation. The precipitation was centrifuged to take supernatant. LPA 18:2 was detected by LC/MS/MS and IC50 values were analyzed and calculated by software, seeing Table 2.

The target in another experiment is ATX (Homo sapiens, UniProt Q13822). Briefly: Analysis in vitro: LPC was used as substrate for screening enzyme activity (Amplex Red fluorescence). The experiment is classed as biochemical. Particulars: inhibitory activity against ATX, with LPC as substrate. An excerpt: Analysis In Vitro: LPC was Used as Substrate for Screening Enzyme Activity
Principle: Lysophosphatidylcholine (LPC) as substrate is hydrolyzed by using the activity of lysoPLD enzyme, to produce lysophosphatidic acid (LPA) and choline, which is oxidized to produce H2O2 under the action of choline oxidase. In presence of horse radish peroxidase (HPR), Amplex Red reagent is reacted with H2O2 in a quantitative chemistry ratio of 1 to 1, to produce strong fluorescence products, which are detected by a fluorescent quantitative test.
Experimental procedures: the compounds to be tested were dissolved in DMSO, to prepare 10 mM of stock solution, which was diluted in a gradient concentration of 3 times with DMSO from 10 mM, to generate 10 concentration gradients. The reaction buffer solution was used for preparing a mixed solution 1 of 2 ng/μl ATX, 2 U/ml HRP and 0.2 U/ml choline oxidase in a final concentration. 20 μl of the above mixed solution 1 was added to each hole of an experiment board, […]. The compounds diluted with DMSO were transferred into an experiment board with Echo550. The reaction buffer solution was used for preparing a mixed solution 2 of […] LPC and 400 μM Amplex Red in a final concentration. 20 μl of the above mixed solution 2 was added to each hole of the experiment board. After addition, the experiment board was shook for 30 seconds on a shaker, and incubated for 30 minutes. Envision was used to read the fluorescence signals with an exciting light at 530 nm and emitted light at 590 nm. Inhibition ratio of the compounds to enzyme reaction was calculated according to the ratio of fluorescence, and IC50 of the compounds was analyzed and calculated by software, seeing Table 1.

As for `CCc1nc2sc(N3C[C@H](C)N(CC(=O)N4CC(O)C4)[C@@H](C)C3)nn2c1N(C)c1nc(-c2ccc(F)cc2)c(C#N)s1` (relative stereo) [Example 73, trans-2-{[6-ethyl-2-(4-(2-(3-hydroxyazetidin-1-yl)-2-oxoethyl)-3,5-dimethylpiperazin-1-yl)imidazo[2,1-b][1,3,4]thiadiazol-5-yl](methyl)amino}-4-(4-fluorophenyl)thiazole-5-carbonitrile], the IC50 (usually the concentration at which inhibition is half-maximal) at ATX in human plasma fell in the range of 100 to 500 nM.

Consider `CCc1nc2sc(N3C[C@H](C)N(CC(=O)N4CC(O)C4)C[C@H]3C)nn2c1N(C)c1nc(-c2ccc(F)cc2)c(C#N)s1` (relative stereo) [Example 76, trans-2-{[6-ethyl-2-(4-(2-(3-hydroxyazetidin-1-yl)-2-oxoethyl)-2,5-dimethylpiperazin-1-yl)imidazo[2,1-b][1,3,4]thiadiazol-5-yl](methyl)amino}-4-(4-fluorophenyl)thiazole-5-carbonitrile], for which the IC50 at ATX in human plasma was 0.01 to 100 nM.

On to `CCc1nc2sc(N3CCN(C(N)=O)CC3)nn2c1N(C)c1nc(-c2ccc(F)cc2)c(C#N)s1` [Example 7, 4-{5-[(5-cyano-4-(4-fluorophenyl)thiazol-2-yl)(methyl)amino]-6-ethylimidazo[2,1-b][1,3,4]thiadiazol-2-yl}piperazine-1-carboxamide], for which the IC50 against ATX in human plasma was 500 to 1000 nM.

On ATX in human plasma, `CCc1nc2sc(N3CC4(CN(C(N)=O)C4)C3)nn2c1N(C)c1nc(-c2ccc(F)cc2)c(C#N)s1` [Example 9, 6-{5-[(5-cyano-4-(4-fluorophenyl)thiazol-2-yl)(methyl)amino]-6-ethylimidazo[2,1-b][1,3,4]thiadiazol-2-yl}-2,6-diazaspiro[3.3]heptane-2-carboxamide] showed an IC50 of 500 to 1000 nM.

Compound `CCOC(=O)CN(C)C1CCN(c2nn3c(N(C)c4nc(-c5ccc(F)cc5)c(C#N)s4)c(CC)nc3s2)C1` (centres unmarked) [Example 48] had an IC50 on ATX in human plasma of 100 to 500 nM.

For the compound `CCc1nc2sc(N3CCC(N(C)CC(=O)O)C3)nn2c1N(C)c1nc(-c2ccc(F)cc2)c(C#N)s1` (centres unmarked) [Example 49, 2-{[1-(5-((5-cyano-4-(4-fluorophenyl)thiazol-2-yl)(methyl)amino)-6-ethylimidazo[2,1-b][1,3,4]thiadiazol-2-yl)pyrrolidin-3-yl](methyl)amino}acetic acid], the IC50 against ATX in human plasma fell in the range of 500 to 1000 nM.

As for `CCc1nc2sc(N3CCC(N(C)CC(=O)NCC(=O)OC)C3)nn2c1N(C)c1nc(-c2ccc(F)cc2)c(C#N)s1` (centres unmarked) [Example 50], on ATX in human plasma, the IC50 was in the range of 100 to 500 nM.

In turn, `CCc1nc2sc(N3CCC(N(C)CC(=O)NCC(=O)O)C3)nn2c1N(C)c1nc(-c2ccc(F)cc2)c(C#N)s1` (centres unmarked) [Example 51] showed an IC50 against ATX in human plasma of 100 to 500 nM.

Turning to `CCc1nc2sc(N3CC4(CCN(CC(=O)N5CC(O)C5)C4)C3)nn2c1N(C)c1nc(-c2ccc(F)cc2)c(C#N)s1` [Example 52, 2-{[6-ethyl-2-(6-(2-(3-hydroxyazetidin-1-yl)-2-oxoethyl)-2,6-diazaspiro[3.4]octan-2-yl)imidazo[2,1-b][1,3,4]thiadiazol-5-yl](methyl)amino}-4-(4-fluorophenyl)thiazole-5-carbonitrile], the IC50 at ATX in human plasma lay in the range of 100 to 500 nM.

Turning to `CCc1nc2sc(N3CCN(CC(=O)N4CC(O)C4)[C@H](C(=O)OC)C3)nn2c1N(C)c1nc(-c2ccc(F)cc2)c(C#N)s1` [Example 81, methyl (S)-4-{5-[(5-cyano-4-(4-fluorophenyl)thiazol-2-yl)(methyl)amino]-6-ethylimidazo[2,1-b][1,3,4]thiadiazol-2-yl}-1-(2-(3-hydroxyazetidin-1-yl)-2-oxoethyl)piperazine-2-carboxylate], the IC50 against ATX was 0.01 to 100 nM.

As to `CCc1nc2sc(N3CCN(CC(=O)N4CC(O)C4)[C@H](CO)C3)nn2c1N(C)c1nc(-c2ccc(F)cc2)c(C#N)s1` [Example 82, (S)-2-{[6-ethyl-2-(4-(2-(3-hydroxyazetidin-1-yl)-2-oxoethyl)-3-(hydroxymethyl)piperazin-1-yl)imidazo[2,1-b][1,3,4]thiadiazol-5-yl](methyl)amino}-4-(4-fluorophenyl)thiazole-5-carbonitrile], the IC50 on ATX fell in the range of 100 to 500 nM.

Take `CCc1nc2sc(N3CCN(CC(=O)N4CC(O)C4)[C@H](C(=O)NC)C3)nn2c1N(C)c1nc(-c2ccc(F)cc2)c(C#N)s1` [Example 83, (S)-4-{5-[(5-cyano-4-(4-fluorophenyl)thiazol-2-yl)(methyl)amino]-6-ethylimidazo[2,1-b][1,3,4]thiadiazol-2-yl}-1-(2-(3-hydroxyazetidin-1-yl)-2-oxoethyl)-N-methylpiperazine-2-carboxamide]: at ATX, the IC50 lay in the range of 500 to 1000 nM.

`CCc1nc2sc(N3CCN(CC(=O)N4CC(O)C4)[C@@H](C(=O)OC)C3)nn2c1N(C)c1nc(-c2ccc(F)cc2)c(C#N)s1` [Example 84, methyl (R)-4-{5-[(5-cyano-4-(4-fluorophenyl)thiazol-2-yl)(methyl)amino]-6-ethylimidazo[2,1-b][1,3,4]thiadiazol-2-yl}-1-(2-(3-hydroxyazetidin-1-yl)-2-oxoethyl)piperazine-2-carboxylate] displayed a half-inhibitory concentration (IC50) against ATX of 100 to 500 nM.

In turn, `CCc1nc2sc(N3CCN(CC(=O)N4CC(O)C4)[C@@H](CO)C3)nn2c1N(C)c1nc(-c2ccc(F)cc2)c(C#N)s1` [Example 85, (R)-2-{[6-ethyl-2-(4-(2-(3-hydroxyazetidin-1-yl)-2-oxoethyl)-3-(hydroxymethyl)piperazin-1-yl)imidazo[2,1-b][1,3,4]thiadiazol-5-yl](methyl)amino}-4-(4-fluorophenyl)thiazole-5-carbonitrile] showed an IC50 at ATX of 500 to 1000 nM.

At ATX, `CN(c1nc(-c2ccc(F)cc2)c(C#N)s1)c1c(CCOCc2ccccc2)nc2sc(N3CC[C@@H](N(C)CC(=O)N4CC(O)C4)C3)nn12` [Example 86] showed an IC50 of at least 1000 nM.

For the compound `CN(c1nc(-c2ccc(F)cc2)c(C#N)s1)c1c(CCO)nc2sc(N3CC[C@@H](N(C)CC(=O)N4CC(O)C4)C3)nn12` [Example 87, (R)-4-(4-fluorophenyl)-2-{[2-(3-((2-(3-hydroxyazetidin-1-yl)-2-oxoethyl)(methyl)amino)pyrrolidin-1-yl)-6-(2-hydroxyethyl)imidazo[2,1-b][1,3,4]thiadiazol-5-yl](methyl)amino}thiazole-5-carbonitrile], at ATX, the IC50 lay within 500 to 1000 nM.

`COCCc1nc2sc(N3CC[C@@H](N(C)CC(=O)N4CC(O)C4)C3)nn2c1N(C)c1nc(-c2ccc(F)cc2)c(C#N)s1` [Example 88, (R)-4-(4-fluorophenyl)-2-{[2-(3-((2-(3-hydroxyazetidin-1-yl)-2-oxoethyl)(methyl)amino)pyrrolidin-1-yl)-6-(2-methoxyethyl)imidazo[2,1-b][1,3,4]thiadiazol-5-yl](methyl)amino}thiazole-5-carbonitrile] came in with an IC50 against ATX of 100 to 500 nM.

Compound `CCc1nc2sc(N3CC[C@@H](N(CC)CC(=O)N4CC(O)C4)C3)nn2c1N(C)c1nc(-c2ccc(F)cc2)c(C#N)s1` [Example 89, (R)-2-{[6-ethyl-2-(3-(ethyl(2-(3-hydroxyazetidin-1-yl)-2-oxoethyl)amino)pyrrolidin-1-yl)imidazo[2,1-b][1,3,4]thiadiazol-5-yl](methyl)amino}-4-(4-fluorophenyl)thiazole-5-carbonitrile] displayed an IC50 against ATX of 100 to 500 nM.

Compound `CCc1nc2sc(N3CC[C@@H](N(CC(=O)N4CC(O)C4)CC4CC4)C3)nn2c1N(C)c1nc(-c2ccc(F)cc2)c(C#N)s1` [Example 90] gave an IC50 at ATX of at least 1000 nM.

Regarding `CCc1nc2sc(N3CC[C@@H](N(C=O)CC(=O)N4CC(O)C4)C3)nn2c1N(C)c1nc(-c2ccc(F)cc2)c(C#N)s1` [Example 91, (R)—N-{1-[5-((5-cyano-4-(4-fluorophenyl)thiazol-2-yl)(methyl)amino)-6-ethylimidazo[2,1-b][1,3,4]thiadiazol-2-yl]pyrrolidin-3-yl}-N-(2-(3-hydroxyazetidin-1-yl)-2-oxoethyl)formamide], the concentration for half-maximal inhibition (IC50) on ATX is 0.01 to 100 nM.

These data come from patent US11679108B2, “Aromatic heterocyclic compound, and pharmaceutical composition and use thereof” (GUANGZHOU HENOVCOM BIOSCIENCE CO., LTD., priority 2018, dated 2023).
